According to patent US9365522B2, “Pyrazole amide derivative” (AMGEN INC., priority 2015, dated 2016):

Target: T1, ligand binding domain of human ROR gamma (Homo sapiens, UniProt P51449)
T1 construct: NM_001001523; expressed in transfected cells; host or cells: HEK293T
T1 sequence (P51449 247-497 isoform P51449-2): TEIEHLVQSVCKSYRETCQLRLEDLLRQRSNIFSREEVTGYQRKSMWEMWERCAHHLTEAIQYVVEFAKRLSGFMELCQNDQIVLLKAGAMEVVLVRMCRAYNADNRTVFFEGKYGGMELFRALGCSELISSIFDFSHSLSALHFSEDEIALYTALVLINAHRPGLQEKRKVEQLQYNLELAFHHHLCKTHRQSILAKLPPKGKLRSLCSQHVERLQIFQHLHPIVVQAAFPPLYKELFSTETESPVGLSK
Assay: ROR gamma reporter gene assay (GAL4-RORγ LBD luciferase, Dual-Glo)
Format: cell-based
Conditions: HEK293T cells transfected with pM-ROR gamma, 8 concentrations 3.5 nM to 10.5 μM, 24 h incubation; read-out: result (pIC50, inhibition of RORγ transcriptional activity) (converted)
Summary of the method: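 HEK293T cells co-transfected with GAL4-DBD fused to human RORγ LBD (aa 247-497), 5×UAS firefly luciferase reporter and CMV-renilla, in charcoal-stripped serum.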

| IC50 | SMILES |
| --- | --- |
| 8320 pM | CC1(C)CCC(N(CC(=O)c2c(Cl)cc(F)cc2Cl)C(=O)c2cnn([C@H]3CC[C@](C)(C(=O)O)CC3)c2C(F)(F)F)CC1 [Example 190, trans-4-(4-((2-(2,6-dichloro-4-fluorophenyl)-2-oxoethyl)-(4,4-dimethylcyclohexyl)carbamoyl)-5-(trifluoromethyl)pyrazol-1-yl)-1-methylcyclohexane-1-carboxylic acid] |
| 8910 pM | CC1(C)CCC(N(CC(=O)c2c(Cl)cc(Cl)cc2Cl)C(=O)c2cnn([C@H]3CC[C@](C)(C(=O)O)CC3)c2C(F)(F)F)CC1 [Example 191, trans-4-(4-((4,4-dimethylcyclohexyl)-(2-oxo-2-(2,4,6-trichlorophenyl)ethyl)carbamoyl)-5-(trifluoromethyl)pyrazol-1-yl)-1-methylcyclohexane-1-carboxylic acid] |
| 3.47e+06 pM | CC1(C)CCC(N(CC(=O)c2c(Cl)cncc2Cl)C(=O)c2cnn([C@H]3CC[C@](C)(C(=O)O)CC3)c2C(F)F)CC1 [Example 196, trans-4-(4-((2-(3,5-dichloropyridin-4-yl)-2-oxoethyl)-(4,4-dimethylcyclohexyl)carbamoyl)-5-(difluoromethyl)pyrazol-1-yl)-1-methylcyclohexane-1-carboxylic acid] |

The next lines start with the compound.

| SMILES | IC50 |
| --- | --- |
| CC12CCC(CN(CC(=O)c3c(Cl)cncc3Cl)C(=O)c3cnn([C@H]4CC[C@H](C(=O)O)CC4)c3C(F)(F)F)(CC1)C2 [Example 192, trans-4-(4-((2-(3,5-dichloropyridin-4-yl)-2-oxoethyl)-((1-methyl-4-bicyclo[2.2.1]heptanyl)methyl)carbamoyl)-5-(trifluoromethyl)pyrazol-1-yl)cyclohexane-1-carboxylic acid] | 11700 pM |
| CC12CCC(CN(CC(=O)c3c(Cl)cc(F)cc3Cl)C(=O)c3cnn([C@H]4CC[C@H](C(=O)O)CC4)c3C(F)(F)F)(CC1)C2 [Example 193, trans-4-(4-((2-(2,6-dichloro-4-fluorophenyl)-2-oxoethyl)-((1-methyl-4-bicycio[2.2.1]heptanyl)methyl)carbamoyl)-5-(trifluoromethyl)pyrazol-1-yl)cyclohexane-1-carboxylic acid] | 6460 pM |
| O=C(CN(CC1(F)CCCC1)C(=O)c1cnn([C@H]2CC[C@H](C(=O)O)CC2)c1C(F)(F)F)c1c(Cl)cncc1Cl [Example 194, trans-4-(4-((2-(3,5-dichloropyridin-4-yl)-2-oxoethyl)-((1-fluorocyclopentyl)methyl)carbamoyl)-5-(trifluoromethyl)pyrazol-1-yl)cyclohexane-1-carboxylic acid] | 14100 pM |
| O=C(CN(Cc1ccc(F)cc1)C(=O)c1cnn([C@H]2CC[C@H](C(=O)O)CC2)c1C(F)(F)F)c1c(Cl)cc[nH]c1=O [Example 195, trans-4-(4-((2-(4-chloro-2-oxo-1H-pyridin-3-yl)-2-oxoethyl)-((4-fluorophenyl)methyl)carbamoyl)-5-(trifluoromethyl)pyrazol-1-yl)cyclohexane-1-carboxylic acid] | > 1e+07 pM |
| C[C@]1(C(=O)O)CC[C@H](n2ncc(C(=O)N(CC(=O)c3c(Cl)cc(F)cc3Cl)Cc3cc(F)cc(F)c3)c2C(F)F)CC1 [Example 197, trans-4-(4-((2-(2,6-dichloro-4-fluorophenyl)-2-oxoethyl)-((3,5-difluorophenyl)methyl)carbamoyl)-5-(difluoromethyl)pyrazol-1-yl)-1-methylcyclohexane-1-carboxylic acid] | 513000 pM |
| O=C(CN(C(=O)c1cnn([C@H]2CC[C@H](C(=O)O)CC2)c1C(F)(F)F)C1CCOC1)c1c(Cl)cncc1Cl (stereo partly drawn) [Example 198, trans-4-(4-((2-(3,5-dichloropyridin-4-yl)-2-oxoethyl)-(oxolan3-yl)carbamoyl)-5-(trifluoromethyl)pyrazol-1-yl)cyclohexane-1-carboxylic acid] | > 1e+07 pM |
